Assay results from publication PMC5198511 (Molecular Pharmacology, 2017).

How the values were obtained:
LogD7.4 measurement = type: physicochemical; details: 1-octanol/phosphate buffer, pH 7.4
[1] = Immobilized artificial membrane chromatography; type: physicochemical; details: IAM chromatography, pH 7.4

CCNC(=O)[C@H]1O[C@@H](n2cnc3c(N)nc(NCCc4ccc(CCC(=O)O)cc4)nc32)[C@H](O)[C@@H]1O [Compound 3ac]
logD (LogD7.4 measurement): < -0.8 | log KIAM [1]: −0.09
